Values joined by “and” are separate entries in the source; they are usually repeats but may differ in a detail not shown here. Equal entries are not always repeated.
How the values were obtained:
[1] = target: T1, 5-hydroxytryptamine receptor 3A (Rattus norvegicus, UniProt P35563)
T1 sequence (P35563 whole entry): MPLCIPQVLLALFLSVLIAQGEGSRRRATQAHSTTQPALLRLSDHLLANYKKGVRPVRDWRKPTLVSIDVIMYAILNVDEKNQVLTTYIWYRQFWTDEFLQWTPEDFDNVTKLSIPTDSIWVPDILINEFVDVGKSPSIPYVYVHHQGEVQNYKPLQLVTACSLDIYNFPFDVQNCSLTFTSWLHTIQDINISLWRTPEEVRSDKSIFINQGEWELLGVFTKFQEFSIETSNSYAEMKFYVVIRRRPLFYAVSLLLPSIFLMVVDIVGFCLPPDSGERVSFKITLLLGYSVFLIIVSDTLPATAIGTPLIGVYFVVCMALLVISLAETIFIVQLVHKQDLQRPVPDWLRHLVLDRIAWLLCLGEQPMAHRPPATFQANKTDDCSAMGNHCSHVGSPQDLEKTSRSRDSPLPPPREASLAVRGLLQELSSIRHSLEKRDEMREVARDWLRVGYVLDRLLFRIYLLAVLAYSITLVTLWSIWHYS

[2] = target: 5-hydroxytryptamine receptor 4 (Rattus norvegicus, UniProt Q62758)
Sequence of 5-hydroxytryptamine receptor 4 (Q62758 whole entry): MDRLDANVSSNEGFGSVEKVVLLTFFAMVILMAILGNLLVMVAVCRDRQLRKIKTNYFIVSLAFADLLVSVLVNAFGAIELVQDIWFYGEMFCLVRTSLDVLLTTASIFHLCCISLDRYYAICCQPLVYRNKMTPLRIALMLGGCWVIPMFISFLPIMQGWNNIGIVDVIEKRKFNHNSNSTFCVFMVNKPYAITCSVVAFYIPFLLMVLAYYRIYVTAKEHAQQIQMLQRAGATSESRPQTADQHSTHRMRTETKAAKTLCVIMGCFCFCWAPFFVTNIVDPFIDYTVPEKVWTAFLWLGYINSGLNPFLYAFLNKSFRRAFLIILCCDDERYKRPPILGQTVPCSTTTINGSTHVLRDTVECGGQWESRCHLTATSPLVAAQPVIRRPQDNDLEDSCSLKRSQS

[3] = target: 5-hydroxytryptamine receptor 1D (Rattus norvegicus, UniProt P28565)
Sequence of 5-hydroxytryptamine receptor 1D (P28565 whole entry): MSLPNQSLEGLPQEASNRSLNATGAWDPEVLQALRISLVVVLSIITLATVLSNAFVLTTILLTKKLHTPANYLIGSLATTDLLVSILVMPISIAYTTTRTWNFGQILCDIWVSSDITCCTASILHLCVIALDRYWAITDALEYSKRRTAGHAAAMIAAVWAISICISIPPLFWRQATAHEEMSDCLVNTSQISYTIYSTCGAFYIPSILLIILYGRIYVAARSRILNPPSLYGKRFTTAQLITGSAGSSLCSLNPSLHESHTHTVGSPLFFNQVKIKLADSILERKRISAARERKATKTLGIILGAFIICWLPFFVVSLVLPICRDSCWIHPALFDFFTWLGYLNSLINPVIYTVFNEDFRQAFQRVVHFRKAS

[4] = target: T2, 5-hydroxytryptamine receptor 1A (Rattus norvegicus, UniProt P19327)
T2 sequence (P19327 whole entry): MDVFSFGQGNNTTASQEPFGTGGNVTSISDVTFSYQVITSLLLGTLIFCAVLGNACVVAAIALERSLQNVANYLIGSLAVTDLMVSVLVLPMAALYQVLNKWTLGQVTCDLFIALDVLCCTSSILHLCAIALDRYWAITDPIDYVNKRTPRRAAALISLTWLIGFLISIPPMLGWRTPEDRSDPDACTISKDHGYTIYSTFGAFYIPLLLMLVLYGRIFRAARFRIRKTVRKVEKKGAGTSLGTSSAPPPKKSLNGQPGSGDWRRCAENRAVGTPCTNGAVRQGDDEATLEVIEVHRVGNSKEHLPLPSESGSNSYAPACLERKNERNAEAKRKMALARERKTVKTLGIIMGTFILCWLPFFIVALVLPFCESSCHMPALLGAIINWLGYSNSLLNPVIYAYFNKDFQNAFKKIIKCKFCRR

[5] = target: 5-hydroxytryptamine receptor 1B (Rattus norvegicus, UniProt P28564)
Sequence of 5-hydroxytryptamine receptor 1B (P28564 whole entry): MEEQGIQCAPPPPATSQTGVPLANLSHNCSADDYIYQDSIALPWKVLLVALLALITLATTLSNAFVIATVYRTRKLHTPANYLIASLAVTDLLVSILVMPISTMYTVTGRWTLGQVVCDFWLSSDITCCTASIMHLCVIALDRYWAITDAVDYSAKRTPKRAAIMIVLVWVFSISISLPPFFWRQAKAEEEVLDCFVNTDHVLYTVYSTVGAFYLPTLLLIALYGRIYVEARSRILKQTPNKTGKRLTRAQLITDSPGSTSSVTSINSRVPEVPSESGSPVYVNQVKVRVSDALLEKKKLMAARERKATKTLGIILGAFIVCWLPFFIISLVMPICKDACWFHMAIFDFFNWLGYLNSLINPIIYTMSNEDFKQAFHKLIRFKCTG

[6] = target: T3, 5-hydroxytryptamine receptor 2C (Rattus norvegicus, UniProt P08909)
T3 sequence (P08909 whole entry): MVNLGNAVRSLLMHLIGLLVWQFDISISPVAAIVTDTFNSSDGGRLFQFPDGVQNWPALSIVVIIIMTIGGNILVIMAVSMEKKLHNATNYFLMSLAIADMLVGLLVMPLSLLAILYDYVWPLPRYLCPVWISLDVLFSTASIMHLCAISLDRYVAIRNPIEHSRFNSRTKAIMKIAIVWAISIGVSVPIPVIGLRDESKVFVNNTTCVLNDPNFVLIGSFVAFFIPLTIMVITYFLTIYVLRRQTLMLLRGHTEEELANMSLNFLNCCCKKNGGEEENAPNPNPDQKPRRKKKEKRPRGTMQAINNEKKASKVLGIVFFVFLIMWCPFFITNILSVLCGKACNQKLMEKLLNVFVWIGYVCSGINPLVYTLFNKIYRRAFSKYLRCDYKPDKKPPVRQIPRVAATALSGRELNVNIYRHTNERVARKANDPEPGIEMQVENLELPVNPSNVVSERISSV

[7] = target: T4, Alpha-1A adrenergic receptor (Rattus norvegicus, UniProt P43140)
T4 sequence (P43140 whole entry): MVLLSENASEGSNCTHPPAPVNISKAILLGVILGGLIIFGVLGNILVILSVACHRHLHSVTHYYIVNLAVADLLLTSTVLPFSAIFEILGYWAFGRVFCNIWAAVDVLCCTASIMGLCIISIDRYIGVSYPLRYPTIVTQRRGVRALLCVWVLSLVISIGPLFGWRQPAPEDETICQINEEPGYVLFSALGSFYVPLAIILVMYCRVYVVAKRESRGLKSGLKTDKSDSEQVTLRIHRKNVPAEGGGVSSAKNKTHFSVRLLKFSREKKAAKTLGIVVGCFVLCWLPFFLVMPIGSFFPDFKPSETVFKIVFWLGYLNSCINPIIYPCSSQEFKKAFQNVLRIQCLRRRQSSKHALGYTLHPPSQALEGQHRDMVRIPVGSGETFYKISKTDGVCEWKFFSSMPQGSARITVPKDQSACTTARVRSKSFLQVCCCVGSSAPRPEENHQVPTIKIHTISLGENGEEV

| Structure (SMILES) | Ki [1] [nM] | Ki [2] [nM] | Ki [3] [nM] | also measured |
| --- | --- | --- | --- | --- |
| CCCN(CCC)C1CCc2cccc(O)c2C1 (centres undefined) | > 10000 | > 10000 |  |  |
| CCn1c(=O)n(C(=O)NC2CC3CCC(C2)N3C)c2ccccc21 (centres undefined) [BIMU 1] |  | 0.19 |  |  |
| O=C1CC2(CCCC2)CC(=O)N1CCCCN1CCN(c2ncccn2)CC1 [BUSPAR] | > 10000 | > 10000 | > 10000 |  |
| O=c1[nH]c2ccccc2n1CCN1CCN(c2ccc(C(F)(F)F)cc2)CC1 [CAS_127941] | > 10000 | > 10000 | 2510 | Ki [4]: 47.9 nM and 19.1 nM; Ki [5]: 2090 nM; Ki [6]: 3980 nM |
| CN1C2CCC1CC(OC(=O)c1cc(Cl)cc(Cl)c1)C2 (centres undefined) [MDL 72222] | 0.8 |  |  |  |
| COc1cccc(OC)c1OCCNCC1Oc2ccccc2OC1c1ccccc1 (centres undefined) [NSC_185453] |  |  |  | Ki [7]: 0.3 nM |

Reference: BindingDB's records for doi:10.1007/bf00168557 (Boehringer Ingelheim Italia, 1995)
